From ChEMBL document CHEMBL3137667, “[Drug-induced liver injury; fourteenth updated edition of the bibliographic database of liver injuries and related drugs]” (Gastroenterol Clin Biol, 2004)

What was measured:
[1] = Highest frequency of moderate liver toxicity observed during clinical trials, expressed as a percentage. [column '% BIOL' in source]; settings: human
[2] = Highest frequency of acute liver toxicity observed during clinical trials, expressed as a percentage. [column '% AIGUE' in source]; settings: human
[3] = human, serum
[4] = human, serum; remark: listed apart in the source
[5] = human
[6] = human; remark: listed apart in the source
[7] = human; remark: listed apart in the source
[8] = human, serum, 4383 h
[9] = human; remark: listed apart in the source
[10] = human; remark: listed apart in the source
[11] = human; remark: listed apart in the source
[12] = human; remark: listed apart in the source
[13] = human; remark: listed apart in the source
[14] = human; remark: listed apart in the source
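For Hepatotoxicity (association with vascular disease) in this document: count of indexed literature references reporting vascular liver injury in humans, e.g. peliosis hepatitis, hepatic veno-occlusive disease or Budd-Chiari syndrome.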
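For Hepatotoxicity (benign tumour) in this document: value is a count of indexed literature references citing a benign tumour confirmed by histopathology.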
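For Hepatotoxicity (choleostasis) in this document: human cholestatic liver injury, shown by histopathology or by peak ALT or AST elevation over alkaline phosphatase ratio below 2, value counts indexed literature reports.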
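For Hepatotoxicity (chronic liver disease) in this document: chronic liver injury confirmed by histopathology or persistently raised serum aminotransferase activity beyond 6 months, value given as the count of indexed literature references.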
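For Hepatotoxicity (cirrhosis) in this document: value is a count of indexed literature references reporting cirrhosis confirmed by histopathology.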
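For Hepatotoxicity (cytolytic) in this document: human cytolytic liver injury, shown by histopathology or by a ratio above 5 of peak ALT or AST elevation to alkaline phosphatase elevation, value counts indexed references.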
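For Hepatotoxicity (granulomatous hepatitis) in this document: value is a count of indexed literature references reporting granulomatous liver disease confirmed by histopathology.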
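For Hepatotoxicity (malignant tumour) in this document: malignant tumour confirmed by histopathology, value gives the count of indexed literature references reporting it.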
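For Hepatotoxicity (severe hepatitis) in this document: human clinical data: severe hepatitis, meaning potentially life-threatening liver failure or clinically observed cases, the value counts how many indexed literature references report it.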
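For Hepatotoxicity (steatosis) in this document: steatosis confirmed by histopathology, value is the count of indexed references.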

C=C(OC)C(=O)Nc1cc(OC)c(OC)cc1C(=O)O[C@H]1C[C@H](O[C@@H]2C(=O)C(NC(=O)OC)=C3/C(=C\CSSSC)[C@]2(O)C#C/C=C\C#C[C@@H]3O[C@@H]2O[C@H](C)[C@@H](NO[C@H]3C[C@H](O)[C@H](SC)[C@@H](C)O3)[C@H](O)[C@H]2O[C@H]2C[C@H](OC)[C@@H](NC(C)C)CO2)O[C@@H](C)[C@H]1O [ESPERAMICIN A1]
Hepatotoxicity (moderate) [1]: 10.7% | Hepatotoxicity (acute) [2]: 0% | Hepatotoxicity (moderate) [3]: 1 | Hepatotoxicity (acute) [4]: 0 | Hepatotoxicity (cytolytic) [5]: 0 | Hepatotoxicity (choleostasis) [6]: 0 | Hepatotoxicity (severe hepatitis) [7]: 0 | Hepatotoxicity (chronic liver disease) [8]: 0 | Hepatotoxicity (cirrhosis) [9]: 0 | Hepatotoxicity (granulomatous hepatitis) [10]: 0 | Hepatotoxicity (association with vascular disease) [11]: 0 | Hepatotoxicity (steatosis) [12]: 0 | Hepatotoxicity (malignant tumour) [13]: 0 | Hepatotoxicity (benign tumour) [14]: 0

CC1(C)S[C@@H]2[C@H](NC(=O)[C@H](N)c3ccccc3)C(=O)N2[C@H]1C(=O)OCOC(=O)[C@@H]1N2C(=O)C[C@H]2S(=O)(=O)C1(C)C [SULTAMICILLIN]
Hepatotoxicity (moderate) [1]: 43% | Hepatotoxicity (acute) [2]: 0.2% | Hepatotoxicity (moderate) [3]: 61 | Hepatotoxicity (acute) [4]: 1 | Hepatotoxicity (cytolytic) [5]: 0 | Hepatotoxicity (choleostasis) [6]: 1 | Hepatotoxicity (severe hepatitis) [7]: 0 | Hepatotoxicity (chronic liver disease) [8]: 0 | Hepatotoxicity (cirrhosis) [9]: 0 | Hepatotoxicity (granulomatous hepatitis) [10]: 0 | Hepatotoxicity (association with vascular disease) [11]: 0 | Hepatotoxicity (steatosis) [12]: 0 | Hepatotoxicity (malignant tumour) [13]: 0 | Hepatotoxicity (benign tumour) [14]: 0

O=C(O)Cc1ccccc1Oc1ccc(Cl)cc1Cl [FENCLOFENAC]
Hepatotoxicity (moderate) [1]: 1% | Hepatotoxicity (acute) [2]: 0% | Hepatotoxicity (moderate) [3]: 1 | Hepatotoxicity (acute) [4]: 0 | Hepatotoxicity (cytolytic) [5]: 0 | Hepatotoxicity (choleostasis) [6]: 0 | Hepatotoxicity (severe hepatitis) [7]: 0 | Hepatotoxicity (chronic liver disease) [8]: 0 | Hepatotoxicity (cirrhosis) [9]: 0 | Hepatotoxicity (granulomatous hepatitis) [10]: 0 | Hepatotoxicity (association with vascular disease) [11]: 0 | Hepatotoxicity (steatosis) [12]: 0 | Hepatotoxicity (malignant tumour) [13]: 0 | Hepatotoxicity (benign tumour) [14]: 0

CNC(=O)[C@@H](NC(=O)[C@H](CC(C)C)[C@H](O)C(=O)NO)C(C)(C)C
Hepatotoxicity (moderate) [1]: 0% | Hepatotoxicity (acute) [2]: 0% | Hepatotoxicity (moderate) [3]: 1 | Hepatotoxicity (acute) [4]: 0 | Hepatotoxicity (cytolytic) [5]: 0 | Hepatotoxicity (choleostasis) [6]: 0 | Hepatotoxicity (severe hepatitis) [7]: 0 | Hepatotoxicity (chronic liver disease) [8]: 0 | Hepatotoxicity (cirrhosis) [9]: 0 | Hepatotoxicity (granulomatous hepatitis) [10]: 0 | Hepatotoxicity (association with vascular disease) [11]: 0 | Hepatotoxicity (steatosis) [12]: 0 | Hepatotoxicity (malignant tumour) [13]: 0 | Hepatotoxicity (benign tumour) [14]: 0

CC(/C=N/NC(=N)N)=N\NC(=N)N [MITOGUAZONE]
Hepatotoxicity (moderate) [1]: 18.2% | Hepatotoxicity (acute) [2]: 0% | Hepatotoxicity (moderate) [3]: 1 | Hepatotoxicity (acute) [4]: 0 | Hepatotoxicity (cytolytic) [5]: 0 | Hepatotoxicity (choleostasis) [6]: 0 | Hepatotoxicity (severe hepatitis) [7]: 0 | Hepatotoxicity (chronic liver disease) [8]: 0 | Hepatotoxicity (cirrhosis) [9]: 0 | Hepatotoxicity (granulomatous hepatitis) [10]: 0 | Hepatotoxicity (association with vascular disease) [11]: 0 | Hepatotoxicity (steatosis) [12]: 0 | Hepatotoxicity (malignant tumour) [13]: 0 | Hepatotoxicity (benign tumour) [14]: 0

COC(=O)c1nc2cc(Cl)c3cccnc3c2o1 [QUAZOLAST]
Hepatotoxicity (moderate) [1]: 13% | Hepatotoxicity (acute) [2]: 0% | Hepatotoxicity (moderate) [3]: 1 | Hepatotoxicity (acute) [4]: 0 | Hepatotoxicity (cytolytic) [5]: 0 | Hepatotoxicity (choleostasis) [6]: 0 | Hepatotoxicity (severe hepatitis) [7]: 0 | Hepatotoxicity (chronic liver disease) [8]: 0 | Hepatotoxicity (cirrhosis) [9]: 0 | Hepatotoxicity (granulomatous hepatitis) [10]: 0 | Hepatotoxicity (association with vascular disease) [11]: 0 | Hepatotoxicity (steatosis) [12]: 0 | Hepatotoxicity (malignant tumour) [13]: 0 | Hepatotoxicity (benign tumour) [14]: 0

CCOC(=O)C1=C(C)NC(C)=C(C(=O)OCC)C1c1ccccc1/C=C/C(=O)OC(C)(C)C [LACIDIPINE]
Hepatotoxicity (moderate) [1]: 0% | Hepatotoxicity (acute) [2]: 0% | Hepatotoxicity (moderate) [3]: 1 | Hepatotoxicity (acute) [4]: 0 | Hepatotoxicity (cytolytic) [5]: 0 | Hepatotoxicity (choleostasis) [6]: 0 | Hepatotoxicity (severe hepatitis) [7]: 0 | Hepatotoxicity (chronic liver disease) [8]: 0 | Hepatotoxicity (cirrhosis) [9]: 0 | Hepatotoxicity (granulomatous hepatitis) [10]: 0 | Hepatotoxicity (association with vascular disease) [11]: 0 | Hepatotoxicity (steatosis) [12]: 0 | Hepatotoxicity (malignant tumour) [13]: 0 | Hepatotoxicity (benign tumour) [14]: 0

O=C1CC2(CCCC2)CC(=O)N1CCCCN1CCN(c2nsc3ccccc23)CC1 [TIOSPIRONE]
Hepatotoxicity (moderate) [1]: 7.1% | Hepatotoxicity (acute) [2]: 0% | Hepatotoxicity (moderate) [3]: 1 | Hepatotoxicity (acute) [4]: 0 | Hepatotoxicity (cytolytic) [5]: 0 | Hepatotoxicity (choleostasis) [6]: 0 | Hepatotoxicity (severe hepatitis) [7]: 0 | Hepatotoxicity (chronic liver disease) [8]: 0 | Hepatotoxicity (cirrhosis) [9]: 0 | Hepatotoxicity (granulomatous hepatitis) [10]: 0 | Hepatotoxicity (association with vascular disease) [11]: 0 | Hepatotoxicity (steatosis) [12]: 0 | Hepatotoxicity (malignant tumour) [13]: 0 | Hepatotoxicity (benign tumour) [14]: 0

CN(C)CCOC(c1ccccc1)c1ccccc1 [DIPHENHYDRAMINE]
Hepatotoxicity (moderate) ([1]; Liver): 1.4% | Hepatotoxicity (acute) ([2]; Liver): 0% | Hepatotoxicity (moderate) [3]: 1 | Hepatotoxicity (acute) [4]: 0 | Hepatotoxicity (cytolytic) ([5]; Liver): 0 | Hepatotoxicity (choleostasis) ([6]; Liver): 0 | Hepatotoxicity (severe hepatitis) ([7]; Liver): 0 | Hepatotoxicity (chronic liver disease) [8]: 0 | Hepatotoxicity (cirrhosis) [9]: 0 | Hepatotoxicity (granulomatous hepatitis) ([10]; Liver): 0 | Hepatotoxicity (association with vascular disease) [11]: 0 | Hepatotoxicity (steatosis) [12]: 0 | Hepatotoxicity (malignant tumour) [13]: 0 | Hepatotoxicity (benign tumour) [14]: 0

POVIDONE
Hepatotoxicity (moderate) [1]: 0% | Hepatotoxicity (acute) [2]: 0% | Hepatotoxicity (moderate) [3]: 0 | Hepatotoxicity (acute) [4]: 0 | Hepatotoxicity (cytolytic) [5]: 0 | Hepatotoxicity (choleostasis) [6]: 0 | Hepatotoxicity (severe hepatitis) [7]: 0 | Hepatotoxicity (chronic liver disease) [8]: 0 | Hepatotoxicity (cirrhosis) [9]: 1 | Hepatotoxicity (granulomatous hepatitis) [10]: 0 | Hepatotoxicity (association with vascular disease) [11]: 0 | Hepatotoxicity (steatosis) [12]: 0 | Hepatotoxicity (malignant tumour) [13]: 0 | Hepatotoxicity (benign tumour) [14]: 0

OC(CCCN1CCCCC1)(c1ccccc1)c1ccccc1 [DIPHENIDOL]
Hepatotoxicity (moderate) [1]: 0% | Hepatotoxicity (acute) [2]: 0% | Hepatotoxicity (moderate) [3]: 0 | Hepatotoxicity (acute) [4]: 1 | Hepatotoxicity (cytolytic) [5]: 0 | Hepatotoxicity (choleostasis) [6]: 0 | Hepatotoxicity (severe hepatitis) [7]: 0 | Hepatotoxicity (chronic liver disease) [8]: 0 | Hepatotoxicity (cirrhosis) [9]: 0 | Hepatotoxicity (granulomatous hepatitis) [10]: 0 | Hepatotoxicity (association with vascular disease) [11]: 0 | Hepatotoxicity (steatosis) [12]: 0 | Hepatotoxicity (malignant tumour) [13]: 0 | Hepatotoxicity (benign tumour) [14]: 0

CC(OC(=O)OC1CCCCC1)OC(=O)C1=C(CSc2nnnn2CCN(C)C)CS[C@@H]2[C@H](NC(=O)Cc3csc(N)n3)C(=O)N12 (stereo partly drawn)
Hepatotoxicity (moderate) [1]: 28.6% | Hepatotoxicity (acute) [2]: 0% | Hepatotoxicity (moderate) [3]: 25 | Hepatotoxicity (acute) [4]: 0 | Hepatotoxicity (cytolytic) [5]: 0 | Hepatotoxicity (choleostasis) [6]: 0 | Hepatotoxicity (severe hepatitis) [7]: 0 | Hepatotoxicity (chronic liver disease) [8]: 0 | Hepatotoxicity (cirrhosis) [9]: 0 | Hepatotoxicity (granulomatous hepatitis) [10]: 0 | Hepatotoxicity (association with vascular disease) [11]: 0 | Hepatotoxicity (steatosis) [12]: 0 | Hepatotoxicity (malignant tumour) [13]: 0 | Hepatotoxicity (benign tumour) [14]: 0
